Experimental data: article PMC4361473, “A New System for Profiling Drug-Induced Calcium Signal Perturbation in Human Embryonic Stem Cell–Derived Cardiomyocytes” (Journal of Biomolecular Screening, 2015)
Read-outs that look alike come from different tables or passages of the source. Values belong to the compound of their own block, whether it stands above or below them.

Key:
Cytiva hSCCMs [1] = test: SALVO profiling of drug-evoked Ca2+ signal perturbation (fluo-4 confocal imaging)
Excerpt: Cytiva hSCCMs were derived from monolayer differentiation of an H7 hESC cell line that had been expanded under feeder-free conditions and then subjected to a proprietary differentiation protocol (GE Healthcare, Piscataway, NJ, USA).[13] […] Cells were thawed and seeded into 7-mm^2 chambers created by the adherence of silicon gaskets (CultureWell MultiWell 3 mm in diameter, 1-mm-depth inserts [Life Technologies]) on glass-bottomed culture chambers (In Vitro Scientific, Sunnyvale, CA, USA) that had been precoated with Matrigel (BD Biosciences, Franklin Lakes, NJ, USA), Franklin Lakes, NJ, USA diluted 1:30 (v/v) in Knockout DMEM (Life Technologies, Carlsbad, CA, USA). […] Cells were allowed to adhere to the coverslip for 2 h before the dish was filled with RPMI/B27 (2 mL). Medium was exchanged every 48 h.
Cells were incubated with fluo-4 AM (5 µM) (Life Technologies) for 1 h at 37°C before coverslips were flooded with RPMI/B27 (2 mL). […] Cells were maintained at 37 °C throughout experiments. […] The application of caffeine (5 mM final concentration) was used to trigger sarcoplasmic reticulum (SR) Ca^2+ release and thereby estimate the intra-SR Ca^2+ store load.
Taking our lead from Uhlen’s method of using spectral analysis to investigate the organization of Ca^2+ signals,[14] we developed SALVO to decode the spatiotemporal patterning of Ca^2+ oscillations within individual cells and across multicellular populations. SALVO outputs 30 parameters that describe Ca^2+ signal organization,[15] but for the purposes of this study, we focused on five parameters: oscillation rate (rate, Hz) and four other parameters that quantify the amplitude and temporal patterning of Ca^2+ oscillation: (1) amplitude heterogeneity index (AHI) and (2) temporal heterogeneity index (THI), statistical assessments of signal amplitude and temporal variability within single cells, respectively; (3) intertransient noise (ITN), defined as the Ca^2+ signal variability occurring between Ca^2+ oscillations and that extends the use of signal variability (SV) to measure point-by-point differences in very low-amplitude Ca^2+ signals[6],[10],[12]; and (4) synchronization, an index of the temporal coincidence of Ca^2+ oscillation maxima occurring across cells in the population. The calculation of these parameters is described in Supplementary Figure S1. SALVO is implemented using a Python-based computer program.[15] The detection of signal maxima and minima over a 30-s period in data obtained from 6 to 20 cells in each instance was performed using SALVO’s autodetection algorithms (based on spline detect or threshold detection methods) or by manual assignation of the start, peak, and end of each Ca^2+ spike. SALVO outputs were archived and interrogated using a custom-built SQL-based database system (DB Miner, CHG, NCS, SBJ).
Baseline assessments of Ca^2+ signals in fluo-4–loaded cells prior to the addition of drug (control) were established as described above.
After each addition and following a period of equilibration (approximately 90 s), fluo-4–dependent Ca^2+ signals were acquired for 30 s. Using this protocol, the same population of cells was imaged throughout the entire drug addition sequence.
In all experiments, operators were blinded to the identities of the drugs under test throughout all phases of postexperimental data analysis.
Supplementary Table 2. EC20 values for Ca2+ perturbation.
Drug concentrations (nM) that produced a 20% change from control values (no drug) were calculated for each SALVO parameter from regression analysis of […]
The effective therapeutic plasma concentration of free drug (ETPCunbound, nM) was calculated in Supplementary Table 1.
Calculate percentage effect size (E) for each SALVO parameter, normalized to Ew = E x λ control conditions, at each drug concentration Effect size (E,%) λ
Cumulative Ew for drug concentrations of 0.1, 1, 10, 100 and 1000 nM for The relationship between E and λ is given by […]

Cytiva hSCCMs [2] = test: Whole-cell current-clamp recording of spontaneous action potentials (APD90); assay type: cell-based, human; details: drug at EC20 concentration, 3 min; Fridericia-corrected; blebbistatin-immobilized cells
Method: Cells in 35-mm glass-bottomed culture dishes containing a superfusion insert (AutoMate PCP-1; Digitimer Ltd., Welwyn Garden City, UK) were mounted on the stage of an inverted microscope (CKX-41; Olympus, Tokyo, Japan) and were superfused with normal Tyrode (NT) solution (containing [in mM] NaCl, KCl, MgCl2 [1], CaCl2 [2], HEPES [10], glucose; pH 7.4 with NaOH) or NT-containing drugs maintained at 37 °C using a heated jacket.
Cells were whole-cell clamped with 3- to 4-MΩ patches and an intrapipette solution (containing in [mM] KCl, MgCl2 [1.75], CaCl2 [5.37], EGTA [10], HEPES [10], and Na2ATP [4]; pH 7.2 with KOH) in current-clamp (IC) mode using a CV-7B headstage and MultiClamp 700B amplifier controlled by MultiClamp software (Molecular Devices, Sunnyvale, CA). Data were digitized and acquired using a Digidata 1322a card and pClamp software, respectively (Molecular Devices). Action potentials were sampled at a rate of 20 kHz and low pass (Bessel) filtered at 10 kHz.
Spontaneous cell contracture was terminated using blebbistatin (5 µM, 10 min), an agent that inhibits myofilament shortening and thereby negates patch-clamp recording instability but preserves normal Ca^2+ cycling.[20] […] Action potential (AP) recordings from blebbistatin-immobilized cells were taken under control (no-drug) conditions (1 min) and following the switch to drug-containing NT. APD90, corrected for AP cycle length using Fridericia’s method (APD90(corr) = APD90/cycle length^[…]), was calculated from five consecutive APs following a 3-min exposure of the cells to drug.
Figure 4. Investigating the effect of cardiovascular-active drugs on Cytiva APD90. (A) Cells were exposed to drugs at EC20 concentrations for 3 min (Suppl. Table S2). APD90 values were corrected for beat period using Fridericia’s algorithm. Data points represent individual paired experiments (n = 6). Representative control (gray) and drug-treated (black) action potential traces are shown. (B) APD90 plotted as the percentage change relative to the paired control value (no drug). *p < 0.05. **p < 0.01.

[3] = Effective therapeutic plasma concentration (ETPC, ETPCunbound); assay type: in vivo, human; details: free plasma concentration calculated from ETPC and free drug %, Supplementary Table 1
Excerpt: There is also the issue regarding the relevance of drug potency determined in vitro to clinical dosing in humans. Guo and colleagues[25],[27] used an impedance-derived index of arrhythmic beating in hSCCMs to derive a predicted proarrhythmic score (PPS) that took into account the therapeutically relevant total concentration of drug in human plasma (defined as Ceff). More recently, Clements and Thomas[13] used a similar approach to generate a predictive risk score (PRS) based on their measurement of field potential duration (FPD) in Cytiva.
Supplementary Table 1. Calculating the free plasma concentration of […]
described by Redfern et al. (Redfern et al. (2003) Cardiovasc. Res. 58:32-45) was used to calculate the levels of free drug (ETPCunbound). ETPC for nadolol and valdecoxib were from Krukemyer et al. (Pharm. Res. (1990) 9:953-956) and Yuan et al. (Drug Metab. Disp. (2002) 30:1013-1021), respectively. The values for drug-protein binding were obtained from DrugBank (www.drugbank.ca).

[4] = maximal effective therapeutic plasma concentration, cited from earlier work
[5] = set-up: method as in DrugBank (www.drugbank.ca); details: from drug-protein binding values; ref DrugBank (www.drugbank.ca); cited from earlier work
[6] = cited from earlier work; for TdP risk category: categories assigned by Redfern and colleagues
[7] = 20% change from control in amplitude heterogeneity index, regression of Figure 3 data
[8] = 20% change from control in intercellular synchronization, regression of Figure 3 data
[9] = 20% change from control in intertransient noise, regression of Figure 3 data
[10] = 20% change from control in temporal heterogeneity index, regression of Figure 3 data
[11] = drug concentration producing a 20% change from control (no drug) in Ca2+ oscillation rate, regression of Figure 3 data
[12] = five-parameter SALVO output integrated over 0.1-1000 nM, normalized to control
[13] = spontaneously oscillating Cytiva, concentrations up to 30 µM
[14] = spontaneously oscillating Cytiva

- Effect on APD90 (action potential duration) (Cytiva hSCCMs [2]): no effect
- ETPCunbound [3]: 1159 nM
Structure (SMILES): O=C(NCC1CCCCN1)c1cc(OCC(F)(F)F)ccc1OCC(F)(F)F (centres unmarked) [Flecainide, flecainide]
- EC20 AHI (Cytiva hSCCMs [1]; [7]): 0.26 µM
- EC20 Synch (Cytiva hSCCMs [1]; [8]): > 30 µM
- EC20 ITN (Cytiva hSCCMs [1]; [9]): 2.11 µM
- EC20 THI (Cytiva hSCCMs [1]; [10]): 0.285 µM
- Predicted proarrhythmic score (PPS) (Cytiva hSCCMs [1]; PPS = ETPCunbound/EC20): elevated PPS
- EC20 Rate (Cytiva hSCCMs [1]; [11]): 0.215 µM
- SALVO toxicity score, rank order of the extent of Ca2+ perturbation (Cytiva hSCCMs [1]; [12]): astemizole > thioridazine > cisapride > flecainide > valdecoxib > sotalol > nadolol
- Effect on Ca2+ handling (SALVO parameters) (Cytiva hSCCMs [1]; [13]): large effect sizes in multiple parameters

- ETPCunbound [3]: 271 nM
Structure (SMILES): CC(C)(C)NCC(O)COc1cccc2c1CC(O)C(O)C2 (centres unmarked) [Nadolol, nadolol]
- EC20 AHI (Cytiva hSCCMs [1]; [7]): > 30 µM
- EC20 Synch (Cytiva hSCCMs [1]; [8]): > 30 µM
- EC20 ITN (Cytiva hSCCMs [1]; [9]): > 30 µM
- EC20 THI (Cytiva hSCCMs [1]; [10]): > 30 µM
- EC20 Rate (Cytiva hSCCMs [1]; [11]): > 30 µM
- SALVO toxicity score, rank order of the extent of Ca2+ perturbation (Cytiva hSCCMs [1]; [12]): astemizole > thioridazine > cisapride > flecainide > valdecoxib > sotalol > nadolol
- Effect on Ca2+ handling (SALVO parameters) (Cytiva hSCCMs [1]; [13]): no measurable effect
- ETPC ([4]; ref Krukemyer et al. (Pharm. Res. (1990) 9:953-956)): 387 nM
- Free drug [5]: 70%
- TdP risk category [6]: category 5

Structure (SMILES): COc1ccccc1OCC(O)CN1CCN(CC(=O)Nc2c(C)cccc2C)CC1 (centres unmarked) [Ranolazine, ranolazine]
- Effect on intercellular synchronization (Cytiva hSCCMs [1]; [14]): reduced intercellular synchronization
- Effect on Ca2+ handling (SALVO parameters) (Cytiva hSCCMs [1]; [13]): unchanged Ca^2+ cycling

- ETPCunbound [3]: 14733 nM
- ETPCunbound ([3]; listed as sotalol): 14,733 nM
Structure (SMILES): CC(C)NCC(O)c1ccc(NS(C)(=O)=O)cc1 (centres unmarked) [Sotalol, sotalol]
- EC20 AHI (Cytiva hSCCMs [1]; [7]): 0.21 µM
- EC20 Synch (Cytiva hSCCMs [1]; [8]): > 30 µM
- EC20 ITN (Cytiva hSCCMs [1]; [9]): > 30 µM
- EC20 THI (Cytiva hSCCMs [1]; [10]): > 30 µM
- Predicted proarrhythmic score (PPS) (Cytiva hSCCMs [1]; PPS = ETPCunbound/EC20): ~ 15
- EC20 Rate (Cytiva hSCCMs [1]; [11]): > 30 µM
- SALVO toxicity score, rank order of the extent of Ca2+ perturbation (Cytiva hSCCMs [1]; [12]): astemizole > thioridazine > cisapride > flecainide > valdecoxib > sotalol > nadolol
- Concentration causing an isolated change in AHI (Cytiva hSCCMs [1]; [14]): > 1 µM
- Effect on intercellular synchronization (Cytiva hSCCMs [1]; [14]): did not reduce the extent of intercellular synchronization
- ETPC ([4]; ref Redfern et al. (2003) Cardiovasc. Res. 58:32-45): 14733 nM
- Therapeutic plasma concentration with QT-prolonging effects ([6]; reported, no reference given): exceeding 10 µM

- PPS rank order (Cytiva hSCCMs [1]; PPS = ETPCunbound/EC20): thioridazine > cisapride > valdecoxib
- Effect on APD90 (action potential duration) (Cytiva hSCCMs [2]): increased APD90
- ETPCunbound [3]: 89 nM
Structure (SMILES): CSc1ccc2c(c1)N(CCC1CCCCN1C)c1ccccc1S2 (centres unmarked) [Thioridazine, thioridazine]
- EC20 AHI (Cytiva hSCCMs [1]; [7]): 0.205 µM
- EC20 Synch (Cytiva hSCCMs [1]; [8]): 0.12 µM
- EC20 ITN (Cytiva hSCCMs [1]; [9]): 0.11 µM
- EC20 THI (Cytiva hSCCMs [1]; [10]): 0.53 µM
- EC20 Rate (Cytiva hSCCMs [1]; [11]): 1.12 µM
- SALVO toxicity score, rank order of the extent of Ca2+ perturbation (Cytiva hSCCMs [1]; [12]): astemizole > thioridazine > cisapride > flecainide > valdecoxib > sotalol > nadolol
- Effect on Ca2+ handling (SALVO parameters) (Cytiva hSCCMs [1]; [13]): large effect sizes in multiple parameters

- PPS rank order (Cytiva hSCCMs [1]): thioridazine > cisapride > valdecoxib
- Effect on APD90 (action potential duration) (Cytiva hSCCMs [2]): no effect
- ETPCunbound [3]: 45 nM
Structure (SMILES): Cc1onc(-c2ccccc2)c1-c1ccc(S(N)(=O)=O)cc1 [Valdecoxib, valdecoxib]
- EC20 AHI (Cytiva hSCCMs [1]): 0.685 µM
- EC20 ITN (Cytiva hSCCMs [1]): > 30 µM
- EC20 Rate (Cytiva hSCCMs [1]): 9.87 µM
- EC20 Synch (Cytiva hSCCMs [1]): > 30 µM
- EC20 THI (Cytiva hSCCMs [1]): 12.8 µM
- Effect on Ca2+ handling (SALVO parameters) (Cytiva hSCCMs [1]): large effect sizes in multiple parameters
- SALVO toxicity score, rank order of the extent of Ca2+ perturbation (Cytiva hSCCMs [1]): astemizole > thioridazine > cisapride > flecainide > valdecoxib > sotalol > nadolol
- ETPC ([4]; ref Yuan et al. (Drug Metab. Disp. (2002) 30:1013-1021)): 2257 nM
- Free drug [5]: 2%

Structure (SMILES): COc1ccc(CCN(C)CCCC(C#N)(c2ccc(OC)c(OC)c2)C(C)C)cc1OC (centres unmarked) [Verapamil, verapamil]
- Concentration reducing the rate of Ca2+ oscillation (Cytiva hSCCMs [1]; [14]): > 10 µM
- Effect on Ca2+ handling (SALVO parameters) (Cytiva hSCCMs [1]; [13]): no measurable effect

Structure (SMILES): CCCCc1oc2ccccc2c1C(=O)c1cc(I)c(OCCN(CC)CC)c(I)c1 [amiodarone]
- TdP risk category [6]: category 1

Structure (SMILES): CC(CC(c1ccccc1)c1ccccc1)NC(C)(C)C (centres unmarked) [terodiline]
- TdP risk category [6]: category 2
